Results: PubChem BioAssay AID1919002 (Molecular Pharmacology Branch, DTP, NCI, 2023)
Where “and” joins values, the source holds several entries; their conditions need not be identical. Equal entries are not always repeated. Each block holds one molecule with its values, some of them ahead of it.

System: 743489-274-T-PDC complex spheroid growth
Experiment: Anticancer human tumor 743489-274-T-PDC patient-derived renal cell carcinoma cell line growth inhibition [AhR]
Settings: for viability, T/C: stronger effect = lower value
Outline: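 Spheroids combined tumor cells with HUVEC endothelial cells and human MSCs as stroma. AhR antagonists were paired with standard or investigational drugs, each dosed in half-log steps down from near clinical Cmax, or from 10 microM where Cmax was unknown.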

[1] = curve of first compound, second compound 0.1 µM
[2] = curve of first compound, second compound 0.316 µM
[3] = curve of first compound, second compound 1 µM
[4] = curve of first compound, second compound 3.16 µM
[5] = curve of first compound, second compound 10 µM
[6] = second compound 0.1 µM, first compound 0.0316 µM
[7] = second compound 0.1 µM, first compound 0.1 µM
[8] = second compound 0.1 µM, first compound 0.316 µM
[9] = second compound 0.1 µM, first compound 1 µM
[10] = second compound 0.1 µM, first compound 3.16 µM
[11] = second compound 0.1 µM, first compound 10 µM
[12] = second compound 0.316 µM, first compound 0.0316 µM
[13] = second compound 0.316 µM, first compound 0.1 µM
[14] = second compound 0.316 µM, first compound 0.316 µM
[15] = second compound 0.316 µM, first compound 1 µM
[16] = second compound 0.316 µM, first compound 3.16 µM
[17] = second compound 0.316 µM, first compound 10 µM
[18] = second compound 1 µM, first compound 0.0316 µM
[19] = second compound 1 µM, first compound 0.1 µM
[20] = second compound 1 µM, first compound 0.316 µM
[21] = second compound 1 µM, first compound 1 µM
[22] = second compound 1 µM, first compound 3.16 µM
[23] = second compound 1 µM, first compound 10 µM
[24] = second compound 3.16 µM, first compound 0.0316 µM
[25] = second compound 3.16 µM, first compound 0.1 µM
[26] = second compound 3.16 µM, first compound 0.316 µM
[27] = second compound 3.16 µM, first compound 1 µM
[28] = second compound 3.16 µM, first compound 3.16 µM
[29] = second compound 3.16 µM, first compound 10 µM
[30] = second compound 10 µM, first compound 0.0316 µM
[31] = second compound 10 µM, first compound 0.1 µM
[32] = second compound 10 µM, first compound 0.316 µM
[33] = second compound 10 µM, first compound 1 µM
[34] = second compound 10 µM, first compound 3.16 µM
[35] = second compound 10 µM, first compound 10 µM
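Also: spheroids exposed to agents for 7 days before readout.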
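For viability, T/C in this document: 100% = DMSO vehicle control wells.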

Compound: COc1cc(C2c3cc4c(cc3C(OC3OC5COC(C)OC5C(O)C3O)C3COC(=O)C23)OCO4)cc(OC)c1O (configuration not stated) + CC(CO)NC(=O)c1cc(-c2ccc(Cl)cc2)nn(-c2cnn(C)c2)c1=O
IC50 [1]: > 10000 nM
IC50 [2]: > 10000 nM
IC50 [3]: > 10000 nM
IC50 [4]: > 10000 nM
IC50 [5]: > 10000 nM
viability, T/C [6]: 107%
viability, T/C [7]: 114%
viability, T/C [8]: 95.1%
viability, T/C [9]: 95.9%
viability, T/C [10]: 99.6%
viability, T/C [11]: 97%
viability, T/C [12]: 99.3%
viability, T/C [13]: 118%
viability, T/C [14]: 108%
viability, T/C [15]: 93.5%
viability, T/C [16]: 92%
viability, T/C [17]: 90.7%
viability, T/C [18]: 98.6%
viability, T/C [19]: 96.4%
viability, T/C [20]: 101%
viability, T/C [21]: 103%
viability, T/C [22]: 86.6%
viability, T/C [23]: 94.9%
viability, T/C [24]: 99.9%
viability, T/C [25]: 97%
viability, T/C [26]: 102%
viability, T/C [27]: 95.4%
viability, T/C [28]: 97.7%
viability, T/C [29]: 90.9%
viability, T/C [30]: 108%
viability, T/C [31]: 109%
viability, T/C [32]: 103%
viability, T/C [33]: 106%
viability, T/C [34]: 97%
viability, T/C [35]: 92.1%

Compound: O=C(C=Cc1cccc(S(=O)(=O)Nc2ccccc2)c1)NO + Cc1cncc(-c2nc(NCCc3c[nH]c4ccccc34)c3ncn(C(C)C)c3n2)c1
IC50 [1]: > 10000 nM
IC50 [2]: > 10000 nM
IC50 [3]: > 10000 nM
IC50 [4]: > 10000 nM
IC50 [5]: > 10000 nM
viability, T/C [6]: 88.3%
viability, T/C [7]: 87.7%
viability, T/C [8]: 85.9%
viability, T/C [9]: 77.5%
viability, T/C [10]: 69.1%
viability, T/C [11]: 51.4%
viability, T/C [12]: 91.6%
viability, T/C [13]: 95%
viability, T/C [14]: 82.4%
viability, T/C [15]: 72.6%
viability, T/C [16]: 66.6%
viability, T/C [17]: 52.4%
viability, T/C [18]: 98.1%
viability, T/C [19]: 94.3%
viability, T/C [20]: 88.4%
viability, T/C [21]: 70.6%
viability, T/C [22]: 67.5%
viability, T/C [23]: 52.7%
viability, T/C [24]: 102%
viability, T/C [25]: 104%
viability, T/C [26]: 94%
viability, T/C [27]: 82%
viability, T/C [28]: 73.1%
viability, T/C [29]: 54.6%
viability, T/C [30]: 114%
viability, T/C [31]: 118%
viability, T/C [32]: 120%
viability, T/C [33]: 102%
viability, T/C [34]: 78%
viability, T/C [35]: 68.1%

Compound: CC(C)CC(NC(=O)C(Cc1ccccc1)NC(=O)c1cnccn1)B(O)O (configuration not stated) + Cc1ccccc1N=Nc1ccc(NC(=O)c2ccnn2C)c(C)c1
IC50 [1]: 21.8 nM
IC50 [2]: 24.8 nM
IC50 [3]: 28.2 nM
IC50 [4]: 22.2 nM
IC50 [5]: 21.2 nM
viability, T/C (second compound 0.1 µM, first compound 0.000949 µM): 99.1%
viability, T/C (second compound 0.1 µM, first compound 0.003 µM): 115%
viability, T/C (second compound 0.1 µM, first compound 0.00949 µM): 97.4%
viability, T/C (second compound 0.1 µM, first compound 0.03 µM): 31.5%
viability, T/C (second compound 0.1 µM, first compound 0.0949 µM): 13.8%
viability, T/C (second compound 0.1 µM, first compound 0.3 µM): 4.06%
viability, T/C (second compound 0.316 µM, first compound 0.000949 µM): 83.8%
viability, T/C (second compound 0.316 µM, first compound 0.003 µM): 98.5%
viability, T/C (second compound 0.316 µM, first compound 0.00949 µM): 100%
viability, T/C (second compound 0.316 µM, first compound 0.03 µM): 41.1%
viability, T/C (second compound 0.316 µM, first compound 0.0949 µM): 16.2%
viability, T/C (second compound 0.316 µM, first compound 0.3 µM): 2.22%
viability, T/C (second compound 1 µM, first compound 0.000949 µM): 88.9%
viability, T/C (second compound 1 µM, first compound 0.003 µM): 111%
viability, T/C (second compound 1 µM, first compound 0.00949 µM): 113%
viability, T/C (second compound 1 µM, first compound 0.03 µM): 46.9%
viability, T/C (second compound 1 µM, first compound 0.0949 µM): 15.2%
viability, T/C (second compound 1 µM, first compound 0.3 µM): 5%
viability, T/C (second compound 3.16 µM, first compound 0.000949 µM): 89.1%
viability, T/C (second compound 3.16 µM, first compound 0.003 µM): 94.8%
viability, T/C (second compound 3.16 µM, first compound 0.00949 µM): 94.2%
viability, T/C (second compound 3.16 µM, first compound 0.03 µM): 34.9%
viability, T/C (second compound 3.16 µM, first compound 0.0949 µM): 17.3%
viability, T/C (second compound 3.16 µM, first compound 0.3 µM): 2.43%
viability, T/C (second compound 10 µM, first compound 0.000949 µM): 77.4%
viability, T/C (second compound 10 µM, first compound 0.003 µM): 97.6%
viability, T/C (second compound 10 µM, first compound 0.00949 µM): 89.4%
viability, T/C (second compound 10 µM, first compound 0.03 µM): 33.6%
viability, T/C (second compound 10 µM, first compound 0.0949 µM): 10.4%
viability, T/C (second compound 10 µM, first compound 0.3 µM): 4.58%

Continued, in another order:

IC50 [1]: > 1000 nM
IC50 [2]: > 1000 nM
IC50 [3]: > 1000 nM
IC50 [4]: > 1000 nM
IC50 [5]: > 1000 nM
Compound: CC1COCCN1c1cc(-c2ccnn2C)c2ccnc(-c3ccn[nH]3)c2n1 (configuration not stated) + Cc1ccccc1N=Nc1ccc(NC(=O)c2ccnn2C)c(C)c1
viability, T/C (second compound 0.1 µM, first compound 0.00316 µM): 92.8%
viability, T/C (second compound 0.1 µM, first compound 0.01 µM): 94.4%
viability, T/C [6]: 93.9%
viability, T/C [7]: 95.9%
viability, T/C [8]: 88.5%
viability, T/C [9]: 78.4%
viability, T/C (second compound 0.316 µM, first compound 0.00316 µM): 89.7%
viability, T/C (second compound 0.316 µM, first compound 0.01 µM): 101%
viability, T/C [12]: 89.6%
viability, T/C [13]: 93.3%
viability, T/C [14]: 99.2%
viability, T/C [15]: 75.3%
viability, T/C (second compound 1 µM, first compound 0.00316 µM): 93.4%
viability, T/C (second compound 1 µM, first compound 0.01 µM): 98.5%
viability, T/C [18]: 92%
viability, T/C [19]: 86.5%
viability, T/C [20]: 88.2%
viability, T/C [21]: 68.1%
viability, T/C (second compound 3.16 µM, first compound 0.00316 µM): 87.6%
viability, T/C (second compound 3.16 µM, first compound 0.01 µM): 86.8%
viability, T/C [24]: 88%
viability, T/C [25]: 82.8%
viability, T/C [26]: 76.4%
viability, T/C [27]: 76.3%
viability, T/C (second compound 10 µM, first compound 0.00316 µM): 103%
viability, T/C (second compound 10 µM, first compound 0.01 µM): 94.9%
viability, T/C [30]: 96.2%
viability, T/C [31]: 84.9%
viability, T/C [32]: 73.5%
viability, T/C [33]: 58.6%

IC50 [1]: > 10000 nM
IC50 [2]: 5540 nM
IC50 [3]: 2470 nM
IC50 [4]: 1350 nM
IC50 [5]: 825 nM
Compound: COc1cccc2c1C(=O)c1c(O)c3c(c(O)c1C2=O)CC(O)(C(=O)CO)CC3OC1CC(N)C(O)C(C)O1 (configuration not stated) + Cc1cncc(-c2nc(NCCc3c[nH]c4ccccc34)c3ncn(C(C)C)c3n2)c1
viability, T/C [6]: 92.1%
viability, T/C [7]: 92.6%
viability, T/C [8]: 90.2%
viability, T/C [9]: 80.4%
viability, T/C [10]: 96.5%
viability, T/C [11]: 50.4%
viability, T/C [12]: 89.7%
viability, T/C [13]: 92.5%
viability, T/C [14]: 88.3%
viability, T/C [15]: 84.8%
viability, T/C [16]: 70.6%
viability, T/C [17]: 28.4%
viability, T/C [18]: 89.6%
viability, T/C [19]: 97%
viability, T/C [20]: 92.2%
viability, T/C [21]: 89.6%
viability, T/C [22]: 39.2%
viability, T/C [23]: 0.75%
viability, T/C [24]: 91.3%
viability, T/C [25]: 91.6%
viability, T/C [26]: 93.6%
viability, T/C [27]: 67.6%
viability, T/C [28]: 0.25%
viability, T/C [29]: 0.22%
viability, T/C [30]: 111%
viability, T/C [31]: 96%
viability, T/C [32]: 93.6%
viability, T/C [33]: 42%
viability, T/C [34]: 0.4%
viability, T/C [35]: 0.25%

IC50 (curve of compound): > 10000 nM
Compound: CC1(C)CCC(CN2CCN(c3ccc(C(=O)NS(=O)(=O)c4ccc(NCC5CCOCC5)c([N+](=O)[O-])c4)c(Oc4cnc5[nH]ccc5c4)c3)CC2)=C(c2ccc(Cl)cc2)C1
viability, T/C (compound 0.0316 µM): 109% and 96.8% and 101%
viability, T/C (compound 0.1 µM): 112% and 106% and 103%
viability, T/C (compound 0.316 µM): 112% (2×) and 103%
viability, T/C (compound 1 µM): 109% and 106% (2×)
viability, T/C (compound 3.16 µM): 120% and 117% and 108%
viability, T/C (compound 10 µM): 117% and 96.9% and 109%
